# Values joined by “and” are separate entries in the source; they are usually repeats but may differ in a detail not shown here. Identical values can stand only once. Like-named read-outs stand apart in the source and are kept apart here.
# What was measured:
# [1] = test system: 60 cancer cell lines (NCI 60 cancer cell line series); details: cited from earlier work
# [2] = test system: 60 cancer cell lines (NCI 60 cancer cell line series); experiment: NCI-DTP in vitro cancer screen, sulforhodamine B (SRB) growth inhibition, 48 hour exposure; format: cell-based, human; design: key to sensitivity class Ovarian OVCAR-8 CL6005 / sensitivity class Ovarian SK-OV-3 CL6011 / sensitivity class Prostate DU-145 CL11003 / sensitivity class NSCLC NCI-H522 CL1003 / sensitivity class Ovarian IGROV1 CL6010 / sensitivity class Ovarian OVCAR-4 CL6002 / sensitivity class Prostate PC-3(I) CL11001 / sensitivity class Renal A498 CL9013 / sensitivity class Renal SN12C CL9008: sensitivity class: 1 = Low, 2 = Medium, 3 = High
# How it was run: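 Values come from the NCI-DTP screen database: -log GI50, the concentration giving 50% growth inhibition, derived from SRB cell-mass dose-response curves. Each line seeded at its own density, treated day 1 at five ten-fold-spaced doses in duplicate wells, stained after 48 h.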
smiles,measurement,setting,value
CC[C@@]1(O)C(=O)OCc2c1cc1n(c2=O)Cc2cc3c(CN(C)C)c(O)ccc3nc2-1 [Topotecan],-Log (GI50),[1]; Breast MCF7(I) (CL5001),8.0 and 7.8
same,-Log (GI50),[1]; Breast T-47D (CL5014),8.0 and 7.7
same,-Log (GI50),[1]; CNS SF-268 CL12014,7.7
same,-Log (GI50),[1]; CNS SF-539 CL12016,7.7 and 7.8
same,-Log (GI50),[1]; CNS SNB-19 (CL12002),7.5 and 7.6
same,-Log (GI50),[1]; CNS U251(I) CL12009,7.5 and 7.8
same,-Log (GI50),[1]; Colon HCT-15 CL4015,6.2 and 6.3
same,-Log (GI50),[1]; Colon KM12 (CL4017),6.5 and 6.4
same,-Log (GI50),[1]; Leukemia CCRF-CEM(I) (CL7003),7.9
same,-Log (GI50),[1]; Leukemia MOLT-4 (CL7006),7.9
same,-Log (GI50),[1]; Melanoma LOX IMVI CL10001,7.7 and 7.8
same,-Log (GI50),[1]; Melanoma M14 (CL10014),7.5 and 7.8
same,-Log (GI50),[1]; Melanoma SK-MEL-2 (CL10005),5.7 and 6.0
same,-Log (GI50),[1]; Melanoma SK-MEL-5 (CL10007),7.2 and 7.5
same,-Log (GI50),[1]; Melanoma UACC-62 (CL10020),7.8 and 7.7
same,-Log (GI50),[1]; NCSLC NCI-H522 CL1003,7.3 and 7.5
same,-Log (GI50),[1]; NSCLC A549/ATCC (CL1004),7.0 and 7.3
same,-Log (GI50),[1]; NSCLC HOP-62 (CL1026),7.9
same,-Log (GI50),[1]; NSCLC NCI-H23(I) CL1001,7.4
same,-Log (GI50),[1]; NSCLC NCI-H460 CL1021,7.7
same,-Log (GI50),[1]; Ovarian IGROV1 CL6010,6.3 and 6.4
same,-Log (GI50),[1]; Ovarian SK-OV-3 CL6011,7.1 and 7.2
same,-Log (GI50),[1]; Prostate DU-145 CL11003,8.0 and 7.8
same,-Log (GI50),[1]; Renal A498 CL9013,6.7 and 7.0
same,-Log (GI50),[1]; Renal ACHN CL9023,7.7 and 7.8
same,-Log (GI50),[1]; Renal CAKI-1 CL9015,7.9 and 7.8
same,-Log (GI50),[1]; Renal SN12C CL9008,7.6 and 7.5
same,-Log (GI50),[1]; Renal TK10 CL9024,5.1 and 5.3
same,-Log (GI50),[1]; Renal UO-31 CL9004,7.0 and 7.2
same,"classification of cell line as Low(1), Medium(2) or High(3) sensitivity to compound",[2]; Breast HS-578T CL5006,1
same,"classification of cell line as Low(1), Medium(2) or High(3) sensitivity to compound",[2]; Breast MDA-MB-231 CL5005,1
same,"classification of cell line as Low(1), Medium(2) or High(3) sensitivity to compound",[2]; Breast MDA-MB-435 (CL5011),2
same,"classification of cell line as Low(1), Medium(2) or High(3) sensitivity to compound",[2]; Breast MDA-N CL5012,2
same,"classification of cell line as Low(1), Medium(2) or High(3) sensitivity to compound",[2]; Breast T-47D (CL5014),3
same,"classification of cell line as Low(1), Medium(2) or High(3) sensitivity to compound",[2]; CNS SF-268 CL12014,3
same,"classification of cell line as Low(1), Medium(2) or High(3) sensitivity to compound",[2]; CNS SF-539 CL12016,3
same,"classification of cell line as Low(1), Medium(2) or High(3) sensitivity to compound",[2]; CNS SNB-19 (CL12002),2
same,"classification of cell line as Low(1), Medium(2) or High(3) sensitivity to compound",[2]; CNS SNB-75(I) CL12005,2
same,"classification of cell line as Low(1), Medium(2) or High(3) sensitivity to compound",[2]; Colon COLO-250 CL4010,1
same,"classification of cell line as Low(1), Medium(2) or High(3) sensitivity to compound",[2]; Colon HCT-15 CL4015,1
same,"classification of cell line as Low(1), Medium(2) or High(3) sensitivity to compound",[2]; Colon HCT-116 (CL4003),2
same,"classification of cell line as Low(1), Medium(2) or High(3) sensitivity to compound",[2]; Colon HT29(I) CL4001,2
same,"classification of cell line as Low(1), Medium(2) or High(3) sensitivity to compound",[2]; Colon SW-620 (CL4009),2
same,"classification of cell line as Low(1), Medium(2) or High(3) sensitivity to compound",[2]; Leukemia CCRF-CEM(I) (CL7003),3
same,"classification of cell line as Low(1), Medium(2) or High(3) sensitivity to compound",[2]; Leukemia K562(I) CL7005,2
same,"classification of cell line as Low(1), Medium(2) or High(3) sensitivity to compound",[2]; Leukemia MOLT-4 (CL7006),3
same,"classification of cell line as Low(1), Medium(2) or High(3) sensitivity to compound",[2]; Leukemia RPMI-8226(I) (CL7010),2
same,"classification of cell line as Low(1), Medium(2) or High(3) sensitivity to compound",[2]; Melanoma LOX IMVI CL10001,3
same,"classification of cell line as Low(1), Medium(2) or High(3) sensitivity to compound",[2]; Melanoma MALME-3M CL10002,2
same,"classification of cell line as Low(1), Medium(2) or High(3) sensitivity to compound",[2]; Melanoma SK-MEL-2 (CL10005),1
same,"classification of cell line as Low(1), Medium(2) or High(3) sensitivity to compound",[2]; Melanoma SK-MEL-5 (CL10007),2
same,"classification of cell line as Low(1), Medium(2) or High(3) sensitivity to compound",[2]; Melanoma SK-MEL-28 (CL10008),1
same,"classification of cell line as Low(1), Medium(2) or High(3) sensitivity to compound",[2]; Melanoma UACC-257 (CL10021),2
same,"classification of cell line as Low(1), Medium(2) or High(3) sensitivity to compound",[2]; NSCLC A549/ATCC (CL1004),2
same,"classification of cell line as Low(1), Medium(2) or High(3) sensitivity to compound",[2]; NSCLC HOP-62 (CL1026),3
same,"classification of cell line as Low(1), Medium(2) or High(3) sensitivity to compound",[2]; NSCLC HOP-92 (CL1029),2
same,"classification of cell line as Low(1), Medium(2) or High(3) sensitivity to compound",[2]; NSCLC NCI-H226 CL1013,2
same,sensitivity class NSCLC NCI-H23(I) CL1001,"[2]; cell line NSCLC NCI-H23(I), CL1001",2
same,sensitivity class NSCLC NCI-H460 CL1021,"[2]; cell line NSCLC NCI-H460, CL1021",3
same,sensitivity class NSCLC NCI-H522 CL1003,"[2]; cell line NSCLC NCI-H522, CL1003",2
same,sensitivity class Ovarian OVCAR-4 CL6002,"[2]; cell line Ovarian OVCAR-4, CL6002",1
same,sensitivity class Ovarian OVCAR-5 CL6003,"[2]; cell line Ovarian OVCAR-5, CL6003",2
same,sensitivity class Ovarian OVCAR-8 CL6005,"[2]; cell line Ovarian OVCAR-8, CL6005",2
same,sensitivity class Ovarian SK-OV-3 CL6011,"[2]; cell line Ovarian SK-OV-3, CL6011",2
same,sensitivity class Prostate DU-145 CL11003,"[2]; cell line Prostate DU-145, CL11003",3
same,sensitivity class Prostate PC-3(I) CL11001,"[2]; cell line Prostate PC-3(I), CL11001",2
same,sensitivity class Renal 786-O CL9018,"[2]; cell line Renal 786-O, CL9018",3
same,sensitivity class Renal A498 CL9013,"[2]; cell line Renal A498, CL9013",2
same,sensitivity class Renal ACHN CL9023,"[2]; cell line Renal ACHN, CL9023",3
same,sensitivity class Renal CAKI-1 CL9015,"[2]; cell line Renal CAKI-1, CL9015",3
same,sensitivity class Renal RXF-393 CL9016,"[2]; cell line Renal RXF-393, CL9016",2
same,sensitivity class Renal TK10 CL9024,"[2]; cell line Renal TK10, CL9024",1
same,sensitivity class Renal UO-31 CL9004,"[2]; cell line Renal UO-31, CL9004",2

# — patent US20020051978A1, “Methods and compositions for the identification, assessment, prevention and therapy of human cancers” (priority 2000, published 2002)
